Publication PMC4520234 (Journal of medicinal chemistry, 2015)

What was measured:
mice [1] = assay: In vivo tolerability in mice, intraperitoneal injection
[2] = Zinc binding by EGTA titration; conditions: EGTA 7.3 mM, PAC-1 derivative 100 μM, Zn(OTf)2 titration, ex. 410 nm, em. 475 nm
mice [3] = conditions: cited from earlier work
[4] = dogs, cited from earlier work
[5] = Pharmacokinetics in mice, 25 mg/kg IV injection or oral gavage; assay type: in vivo, mouse; conditions: 25 mg/kg IV (n = 2)
[6] = i.p. injection 200 mg/kg, graded mild, moderate, severe, or lethal

In the case of `C=CCc1cccc(/C=N/NC(=O)CN2CCN(C(=O)c3ccc(F)cc3)CC2)c1O` [Compound 7, N′-[2-Hydroxy-3-(2-propenyl)phenylmethylene]-4-(4-fluorobenzoyl)-1-piperazineacetohydrazide], the “mouse toxicity IP 200 mg/kg” value (mice [1]; [6]) is reported as “moderate”.
For `O=C(CN1CCN(Cc2ccccc2)CC1)N/N=C/c1ccccc1` [PAC-1a], the “Zn^2+ Kd” value [2] was “does not bind zinc”.
With `O=C(CN1CCN(C(=O)c2ccc(C(F)(F)F)cc2)CC1)N/N=C/c1cc(F)ccc1O` [Compound 27, N′-(5-Fluoro-2-hydroxyphenylmethylene)-4-[4-(trifluoromethyl)benzoyl]-1-piperazineacetohydrazide] the “mouse toxicity IP 200 mg/kg” value (mice [1]; [6]) was “moderate”.
In the case of `C=CCc1cc(F)cc(/C=N/NC(=O)CN2CCN(C(=O)c3ccc(F)cc3)CC2)c1O` [Compound 34, N′-[5-Fluoro-2-hydroxy-3-(2-propenyl)phenylmethylene]-4-(4-fluorobenzoyl)-1-piperazineacetohydrazide], the “mouse toxicity IP 200 mg/kg” value (mice [1]; [6]) is reported as “severe”.
With `CCCc1cc(F)cc(/C=N/NC(=O)CN2CCN(C(=O)c3ccc(F)cc3)CC2)c1O` [Compound 43, N′-(5-Fluoro-2-hydroxy-3-propylphenylmethylene)-4-(4-fluorobenzoyl)-1-piperazineacetohydrazide] the “mouse toxicity IP 200 mg/kg” value (mice [1]; [6]) was “severe”.
With `C=CCc1cc(F)cc(/C=N/NC(=O)CN2CCN(C(=O)c3ccccc3)CC2)c1O` [Compound 30, N′-[5-Fluoro-2-hydroxy-3-(2-propenyl)phenylmethylene]-4-benzoyl-1-piperazineacetohydrazide] the “mouse toxicity IP 200 mg/kg” value (mice [1]; [6]) was “moderate”.
For `C=CCc1cccc(/C=N/NC(=O)CN2CCN(Cc3ccccc3)CC2)c1O` [PAC-1, Procaspase-Activating Compound 1], the “serum concentration achieved with few adverse events” value (mice [3]) is given as “approximately 10 μM”, the maximum tolerated dose (mice [3]; intraperitoneal injection) is given as 200 mg/kg and the “mouse toxicity IP 200 mg/kg” value (mice [1]; mouse, in vivo, ip, 200 mg/kg) is given as “severe”. The in vivo half-life ([4]; IV administration) was 2.1 ± 0.3 h and the “serum concentration achieved with few adverse events” value [4] was “approximately 10 μM”.
In the case of `C=CCc1cccc(/C=N/NC(=O)CN2CCN(Cc3ccc(S(N)(=O)=O)cc3)CC2)c1O` [S-PAC-1], the “time post-treatment up to which compound is detectable in serum” value [5] is reported as 6 h.
